Measured values as given in patent US20080076050A1, “P-Terphenyl Compound And Photosensitve Body For Electrophotography Using Such Compound” (Hodogaya Chemical Co., Ltd., priority 2004, published 2008).

How the values were obtained:
[1] = Solubility in organic solvents; format: physicochemical; settings: 25° C., amount of solute (g) based on 100 ml of solvent
Experimental: The solubility of Synthesis Examples 1 to 3 and Synthesis Comparative Example 1 in organic solvents (1,2-dichloroethane, toluene and tetrahydrofuran) at 25° C. was measured. The solubility was indicated by the amount of solute (g) based on 100 ml of solvent.

[2] = Dissolving the charge transporting agent in dichloroethane solution of polycarbonate resin for the charge transporting layer; format: physicochemical; settings: 8.0% dichloroethane solution of polycarbonate resin (Iupilon Z)
Experimental: On the other hand, 1.5 parts of the p-terphenyl compound (compound No. 1) synthesized in Synthesis Example 1 was added as a charge transporting agent to 18.75 parts of a 8.0% dichloroethane solution of a polycarbonate resin (Iupilon Z, manufactured by Mitsubishi Engineering-Plastics Corporation), followed by application of an ultrasonic wave to completely dissolve the p-terphenyl compound. This solution was applied onto the above-mentioned charge generating layer with a wire bar, and dried at 110° C. under normal pressure for 30 minutes to form a charge transporting layer having a film thickness of 20 μm, thus preparing photoconductor No. 1.
Photoconductor No. 7 was prepared in the same manner as in Photoconductor Example 1 with the exception that the charge transporting agent used in Photoconductor Example 1 was changed to the same amount of the p-terphenyl compound (comparative compound No. 1) synthesized in Synthesis Comparative Example 1.
On the other hand, 0.9 part of the p-terphenyl compound (compound No. 1) synthesized in Synthesis Example 1 was added as a charge transporting agent to 11.25 parts of a 8.0% dichloroethane solution of a polycarbonate resin (Iupilon Z, manufactured by Mitsubishi Engineering-Plastics Corporation), followed by application of an ultrasonic wave to completely dissolve the p-terphenyl compound. […]

SMILES | Solubility in 1,2-Dichloroethane [1] | Solubility in Tetrahydrofuran [1] | Solubility in Toluene [1] | Solubility of charge transporting agent when preparing the photoconductor [2] | melting point [°C]
Cc1ccc(N(c2ccc(C)cc2)c2ccc(-c3ccc(-c4ccc(N(c5ccc(C)cc5)c5ccc(C)cc5)cc4)cc3)cc2)cc1 [Comparative Compound 1, N,N,N′,N′-tetra-p-tolyl-4,4″-diamino-p-terphenyl] | 2.3 g/100 ml | 12.4 g/100 ml | 2.2 g/100 ml | insoluble | 232.5 to 233.5
Cc1ccc(N(c2ccc(-c3ccc(-c4ccc(N(c5ccc(C)cc5)c5ccc6c(c5)CCC6)cc4)cc3)cc2)c2ccc3c(c2)CCC3)cc1 [Compound No. 1, N,N′-bisindane-5-yl-N,N′-di-p-tolyl-4,4″-diamino-p-terphenyl] | 4.2 g/100 ml | 20.8 g/100 ml | 11.0 g/100 ml | – | 207.4 to 208.1
COc1ccc(N(c2ccccc2)c2ccc(-c3ccc(-c4ccc(N(c5ccccc5)c5ccc(OC)cc5C)cc4)cc3)cc2)c(C)c1 [Compound No. 2, N,N′-di(4-methoxy-2-methylphenyl)-N,N′-diphenyl-4,4″-diamino-p-terphenyl] | 3.5 g/100 ml | 18.1 g/100 ml | 9.3 g/100 ml | – | 180.8 to 183.4
COc1ccc(N(c2ccc(-c3ccccc3)cc2)c2ccc(-c3ccc(-c4ccc(N(c5ccc(-c6ccccc6)cc5)c5ccc(OC)cc5C)cc4)cc3)cc2)c(C)c1 [Compound No. 3, N,N′-bis-biphenyl-4-yl-N,N′-di-4-methoxy-2-methylphenyl-4,4″-diamino-p-terphenyl] | 30.0 or more g/100 ml | 30.0 or more g/100 ml | 30.0 or more g/100 ml | – | 232.6 to 233.2
Cc1ccc(N(c2ccccc2)c2ccc(-c3ccc(-c4ccc(N(c5ccccc5)c5ccc(C)cc5)cc4)cc3)cc2)cc1 [Compound No. 17, N,N′-diphenyl-N,N′-di-p-tolyl-4,4″-diamino-p-terphenyl] | – | – | – | – | 167.2 to 168.2
